According to EP1200395B1, “UREA DERIVATIVES AS INHIBITORS OF CCR-3 RECEPTOR” (KIRIN BEER KABUSHIKI KAISHA, priority 1999, dated 2001):

These compounds were tested against T1, CCR-3 (Homo sapiens, UniProt P51677) (assay: Eotaxin-induced chemotaxis of CCR-3 transfectant cells (CCR3/U937)). Conditions: 10 µM test compound; eotaxin 1 x 10^-9 M; CCR3/U937 cells (Table 3a).
T1 sequence (P51677 1-355): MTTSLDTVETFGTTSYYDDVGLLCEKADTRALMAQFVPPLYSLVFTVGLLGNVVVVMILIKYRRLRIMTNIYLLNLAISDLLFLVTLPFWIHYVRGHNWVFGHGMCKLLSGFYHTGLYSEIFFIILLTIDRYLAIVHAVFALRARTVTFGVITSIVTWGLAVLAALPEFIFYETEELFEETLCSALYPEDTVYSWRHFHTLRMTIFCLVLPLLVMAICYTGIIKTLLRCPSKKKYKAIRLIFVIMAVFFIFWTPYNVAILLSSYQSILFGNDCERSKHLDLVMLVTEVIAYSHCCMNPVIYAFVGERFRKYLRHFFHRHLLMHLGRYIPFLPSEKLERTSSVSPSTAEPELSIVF
Type: cell-based
Design: expressed in transfected cells; host or cells: U937
Description: The inhibitory activity of the compounds against eotaxin-induced chemotaxis was determined by measuring the inhibition of migration of CCR-3 transfectant cells (CCR3/U937), using a minor modification of the method described by Ohashi, H. et al., Int Arch Allergy Immunol. […] The chemotaxis assay was performed in a 24-well culture plate. Human eotaxin suspended in assay medium was added to the wells at 1 x 10^-9 M along with test compounds at various concentrations. For a positive control, eotaxin was added to the wells without a test compound, and for a negative control, neither eotaxin nor a test compound was added to the wells. Chemotaxicell (Kurabo Co., Ltd.) having 5 micrometers pore size were inserted into each well and 100 micro liters of CCR-3 transfectant cells suspension were added to the top chamber. The plates were incubated at 37 °C for 1 hour. After incubation, migrated cells in lower wells were diluted and counted by particle size distribution analyzer (CDP-500, Sysmex Co., Ltd.).

Question: With `O=C(NCCCN(CCCO)CCc1ccc(Cl)cc1)Nc1ccccc1` [Compound 219] as the compound, how does the “Chemotaxis Assay 10 µM (inhibition %)” value read?
Answer: 86%

Question: Which “Chemotaxis Assay 10 µM (inhibition %)” value does the source give for `NC(=O)CN(CCCNC(=O)Nc1ccccc1)CCc1ccc(Cl)cc1` [Compound 220] here?
Answer: 77%

Question: Which “Chemotaxis Assay 10 µM (inhibition %)” value does the source give for `C=CCN(CCCNC(=O)Nc1ccccc1)CCc1ccc(Cl)cc1` [Compound 221] here?
Answer: 100%

Question: Which “Chemotaxis Assay 10 µM (inhibition %)” value does the source give for `O=C(NCCCN(Cc1ccc(C(=O)O)cc1)C1CCCc2ccccc21)Nc1ccc(Br)cc1` (stereo not drawn) [Compound 223] here?
Answer: 86%

Question: `CCOC(=O)C1CC1CN(CCCNC(=O)Nc1ccc(Br)cc1)C1CCCc2ccccc21` (stereo not drawn) [Compound 224] was tested. Which “Chemotaxis Assay 10 µM (inhibition %)” value did it give?
Answer: 75%

Question: How did the “Chemotaxis Assay 10 µM (inhibition %)” value turn out when `COC(=O)CCCN(CCCNC(=O)Nc1ccc(C(=O)O)cc1)C1CCCc2ccccc21` (stereo not drawn) [Compound 225, Methyl 4-[[3-[4-(carboxy)phenylureido]propyl](1,2,3,4-tetrahydro-1-naphthyl)amino]butylate] was run?
Answer: 100%

Question: With `Cc1ccc(C(C)N(CCCNC(=O)Nc2ccc(Br)cc2)CCCC(=O)O)cc1` (stereo not drawn) [Compound 226] as the compound, how does the “Chemotaxis Assay 10 µM (inhibition %)” value read?
Answer: 100%

Question: `CCN(CCCNC(=O)Nc1ccccc1)CCc1ccc(F)cc1` [Compound 230] was tested. Which “Chemotaxis Assay 10 µM (inhibition %)” value did it give?
Answer: 100%

Question: `CCN(CCCNC(=O)Nc1ccccc1)CCc1ccc(C)cc1` [Compound 231] was tested. Which “Chemotaxis Assay 10 µM (inhibition %)” value did it give?
Answer: 90%

Question: `CCN(CCCNC(=O)Nc1ccccc1)CCc1ccccc1Cl` [Compound 232] was tested. Which “Chemotaxis Assay 10 µM (inhibition %)” value did it give?
Answer: 100%

Question: How did the “Chemotaxis Assay 10 µM (inhibition %)” value turn out when `CCN(CCCNC(=O)Nc1ccccc1)CCc1cccc(Cl)c1` [Compound 233] was run?
Answer: 100%

Question: Which “Chemotaxis Assay 10 µM (inhibition %)” value does the source give for `CCN(CCCNC(=O)Nc1ccccc1)C1CCc2ccccc21` (stereo not drawn) [Compound 234] here?
Answer: 89%

Question: How did the “Chemotaxis Assay 10 µM (inhibition %)” value turn out when `O=C(O)CCCN(CCCNC(=O)Nc1ccc(C(=O)O)cc1)C1CCCc2ccccc21` (stereo not drawn) [Compound 235] was run?
Answer: 91%

Question: Which “Chemotaxis Assay 10 µM (inhibition %)” value does the source give for `CCOC(=O)c1cccc(NC(=O)NCCCN(CCCC(=O)O)C2CCCc3ccccc32)c1` (stereo not drawn) [Compound 236] here?
Answer: 97%

Question: With `CC(C)CN(CCCNC(=O)Nc1ccccc1)CCc1ccc(Cl)cc1` [Compound 239] as the compound, how does the “Chemotaxis Assay 10 µM (inhibition %)” value read?
Answer: 100%

Question: With `O=C(NCCCN(CCc1ccc(Cl)cc1)CC1CCCCC1)Nc1ccccc1` [Compound 240] as the compound, how does the “Chemotaxis Assay 10 µM (inhibition %)” value read?
Answer: 86%

Question: For `COC(=O)CCCCN(CCCNC(=O)Nc1ccccc1)CCc1ccc(Cl)cc1` [Compound 241], which “Chemotaxis Assay 10 µM (inhibition %)” value is on record?
Answer: 100%

Question: Which “Chemotaxis Assay 10 µM (inhibition %)” value does the source give for `CCOC(=O)CCCCCN(CCCNC(=O)Nc1ccccc1)CCc1ccc(Cl)cc1` [Compound 242] here?
Answer: 73%

Question: With `NC(=O)CCN(CCCNC(=O)Nc1ccccc1)CCc1ccc(Cl)cc1` [Compound 243] as the compound, how does the “Chemotaxis Assay 10 µM (inhibition %)” value read?
Answer: 84%

Question: With `CC(=O)OCCN(CCCNC(=O)Nc1ccccc1)CCc1ccc(Cl)cc1` [Compound 244] as the compound, how does the “Chemotaxis Assay 10 µM (inhibition %)” value read?
Answer: 81%

Question: `COC(=O)CN(CCCNC(=O)Nc1ccccc1)CCc1ccc(Cl)cc1` [Compound 245] was tested. Which “Chemotaxis Assay 10 µM (inhibition %)” value did it give?
Answer: 100%

Question: Which “Chemotaxis Assay 10 µM (inhibition %)” value does the source give for `CC(c1ccc([N+](=O)[O-])cc1)N(CCCNC(=O)Nc1ccc(Br)cc1)CCCC(=O)O` (stereo not drawn) [Compound 259] here?
Answer: 100%

Question: For `N#Cc1cccc(NC(=O)NCCCN(CCCC(=O)O)C2CCCc3ccccc32)c1` (stereo not drawn) [Compound 260], which “Chemotaxis Assay 10 µM (inhibition %)” value is on record?
Answer: 100%

Question: For `COc1cccc(NC(=O)NCCCN(CCCC(=O)O)C2CCCc3ccccc32)c1` (stereo not drawn) [Compound 261], which “Chemotaxis Assay 10 µM (inhibition %)” value is on record?
Answer: 100%

Question: For `CC(=O)c1cccc(NC(=O)NCCCN(CCCC(=O)O)C2CCCc3ccccc32)c1` (stereo not drawn) [Compound 262], which “Chemotaxis Assay 10 µM (inhibition %)” value is on record?
Answer: 62%

Question: For `CSc1cccc(NC(=O)NCCCN(CCCC(=O)O)C2CCCc3ccccc32)c1` (stereo not drawn) [Compound 263], which “Chemotaxis Assay 10 µM (inhibition %)” value is on record?
Answer: 100%

Question: How did the “Chemotaxis Assay 10 µM (inhibition %)” value turn out when `CSc1ccc(NC(=O)NCCCN(CCCC(=O)O)C2CCCc3ccccc32)cc1` (stereo not drawn) [Compound 264] was run?
Answer: 100%

Question: For `O=C(O)CCCN(CCCNC(=O)Nc1ccc2ccccc2c1)C1CCCc2ccccc21` (stereo not drawn) [Compound 265], which “Chemotaxis Assay 10 µM (inhibition %)” value is on record?
Answer: 95%

Question: `O=C(O)CCCN(CCCNC(=O)Nc1ccc(OC(F)(F)F)cc1)C1CCCc2ccccc21` (stereo not drawn) [Compound 266] was tested. Which “Chemotaxis Assay 10 µM (inhibition %)” value did it give?
Answer: 100%

Question: For `CC(c1cccc2ccccc12)N(CCCNC(=O)Nc1ccc(Br)cc1)CCCC(=O)O` (stereo not drawn) [Compound 268], which “Chemotaxis Assay 10 µM (inhibition %)” value is on record?
Answer: 100%

Question: For `CC(c1ccc2ccccc2c1)N(CCCNC(=O)Nc1ccc(Br)cc1)CCCC(=O)O` (stereo not drawn) [Compound 270], which “Chemotaxis Assay 10 µM (inhibition %)” value is on record?
Answer: 100%

Question: `CCC(c1ccccc1)N(CCCNC(=O)Nc1ccc(Br)cc1)CCCC(=O)O` (stereo not drawn) [Compound 271] was tested. Which “Chemotaxis Assay 10 µM (inhibition %)” value did it give?
Answer: 100%

Question: `O=C(O)CCCN(CCCNC(=O)Nc1ccc(Br)cc1)C1c2ccccc2CC1O` (stereo not drawn) [Compound 273] was tested. Which “Chemotaxis Assay 10 µM (inhibition %)” value did it give?
Answer: 88%

Question: With `COC(=O)CCCN(CCCNC(=O)Nc1ccccc1)CCc1ccc(Cl)cc1` [Compound 274] as the compound, how does the “Chemotaxis Assay 10 µM (inhibition %)” value read?
Answer: 60%

Question: How did the “Chemotaxis Assay 10 µM (inhibition %)” value turn out when `COCCN(CCCNC(=O)Nc1ccccc1)CCc1ccc(Cl)cc1` [Compound 275] was run?
Answer: 100%

Question: For `CC(C)N(CCCNC(=O)Nc1ccccc1)CCc1ccc(Cl)cc1` [Compound 276], which “Chemotaxis Assay 10 µM (inhibition %)” value is on record?
Answer: 100%

Question: `O=C(O)CCCN(CCCNC(=O)Nc1ccc(-c2ccccc2)cc1)C1CCCc2ccccc21` (stereo not drawn) [Compound 277] was tested. Which “Chemotaxis Assay 10 µM (inhibition %)” value did it give?
Answer: 76%

Question: How did the “Chemotaxis Assay 10 µM (inhibition %)” value turn out when `CC(=O)c1ccc(NC(=O)NCCCN(CCCC(=O)O)C2CCCc3ccccc32)cc1` (stereo not drawn) [Compound 278] was run?
Answer: 100%

Question: `O=C(NCCCN(CCc1cccc(Cl)c1)Cc1ccccc1)Nc1ccccc1` [Compound 280] was tested. Which “Chemotaxis Assay 10 µM (inhibition %)” value did it give?
Answer: 60%

Question: `N#Cc1ccc(CN(CCCNC(=O)Nc2ccccc2)CCc2ccc(Cl)cc2)cc1` [Compound 291] was tested. Which “Chemotaxis Assay 10 µM (inhibition %)” value did it give?
Answer: 53%

Question: `COc1cc(CN(CCCNC(=O)Nc2ccccc2)CCc2ccc(Cl)cc2)cc(OC)c1` [Compound 292] was tested. Which “Chemotaxis Assay 10 µM (inhibition %)” value did it give?
Answer: 56%

Same assay, conditions: U-937; 10 µM test compound; eotaxin 1 x 10^-9 M; CCR3/U937 cells (Table 3a)

Question: How did the inhibition at 10 µM turn out when `COc1ccc([C@@H](C)N(CCCNC(=O)Nc2ccc(Br)cc2)CCCC(=O)O)cc1` [Compound 227, 4-[[3-(4-Bromophenylureido)propyl][(1R)-1-(4-methoxyphenyl)ethyl]amino]butanoic acid] was run?
Answer: 100%

Question: With `CCOC(=O)c1ccc(NC(=O)NCCCN(CCCC(=O)O)C2CCCc3ccccc32)cc1` (stereo not drawn) [Compound 228, 4-[[3-[4-(Ethoxycarbonyl)phenylureido]propyl](1,2,3,4-tetrahydro-1-naphthyl)amino]butanoic acid] as the compound, how does the inhibition at 10 µM read?
Answer: 100%

Question: For `O=C(O)CCCN(CCCNC(=O)Nc1ccc(I)cc1)C1CCCc2ccccc21` (stereo not drawn) [Compound 229, 4-[[3-(4-Iodophenylureido)propyl](1,2,3,4-tetrahydro-1-naphthyl)amino]butanoic acid], which inhibition at 10 µM is on record?
Answer: 100%

Question: `O=C(NCCCN(CCc1ccc(Cl)cc1)CCc1ccc(Cl)cc1)Nc1ccccc1` [Compound 238, [3-(Phenylureido)propyl]bis[2-(4-chlorophenyl)ethyl]amine] was tested. Which inhibition at 10 µM did it give?
Answer: 69%

Question: How did the inhibition at 10 µM turn out when `C[C@H](c1ccc(Br)cc1)N(CCCNC(=O)Nc1ccc(Br)cc1)CCCC(=O)O` [Compound 258, 4-[[3-(4-Bromophenylureido)propyl] [(1R)-1-(4-bromophenyl)ethyl]amino]butanoic acid] was run?
Answer: 100%

Question: With `CC(c1ccc(F)cc1)N(CCCNC(=O)Nc1ccc(Br)cc1)CCCC(=O)O` (stereo not drawn) [Compound 269, 4-[[3-(4-Bromophenylureido)propyl][1-(4-fluorophenyl)ethyl]amino]butanoic acid] as the compound, how does the inhibition at 10 µM read?
Answer: 100%

Question: For `CC(c1ccc(Cl)cc1)N(CCCNC(=O)Nc1ccc(Br)cc1)CCCC(=O)O` (stereo not drawn) [Compound 272, 4-[[3-(4-Bromophenylureido)propyl][1-(4-chlorophenyl)ethyl]amino]butanoic acid], which inhibition at 10 µM is on record?
Answer: 89%
